This note sets out measurements from ChEMBL document CHEMBL4627407, “Identification of a Potent Oridonin Analogue for Treatment of Triple-Negative Breast Cancer” (J Med Chem, 2020).

Holding throughout (assay type): functional, cell-based
In experiment [1] the test system is DU-4475. The experiment in a line: Antiproliferative activity against human DU4475 cells after 72 hrs by MTT assay. The settings on record: DU-4475, 72 h.
Experiment [2] deals with HCC1806. Nature of the experiment: Antiproliferative activity against human HCC1806 cells after 72 hrs by MTT assay. The settings on record: HCC1806, 72 h. (Tetrazolium assays rely on reduction of a dye to a coloured formazan, in cell work by metabolically active cells.)
Experiment [3] relates to MDA-MB-468. The experiment in a line: Antiproliferative activity against human MDA-MB-468 cells after 72 hrs by MTT assay. The note with it: MDA-MB-468, 72 h.
Experiment [4] has as its system MDA-MB-231. Nature of the experiment: Antiproliferative activity against human MDA-MB-231 cells after 72 hrs by MTT assay. The settings on record: MDA-MB-231, 72 h.

The structures appear in SMILES notation.

As to `C=C1C(=O)[C@@]23C(=O)[C@@H]4OC[C@]5(C=CCC(C)(C)[C@@H]45)[C@@H]2CC[C@@H]1[C@H]3OC(=O)/C=C/c1ccccc1`, the IC50 (as a rule, the concentration that inhibits the measured activity by half) is 1.64 µM in experiment [1], 1.55 µM in experiment [2], 1.63 µM in experiment [3] and 1.37 µM in experiment [4].

Take `C=C1C(=O)[C@@]23C(=O)[C@@H]4OC[C@]5(C=CCC(C)(C)[C@@H]45)[C@@H]2CC[C@@H]1[C@H]3OC(=O)C=C(C)C`: the IC50 in experiment [1] turned out to be 2.72 µM; in experiment [2] it was 3.06 µM; in experiment [3], 2.81 µM; in experiment [4], 2.09 µM.

In the case of `C=C1C(=O)[C@@]23C(=O)[C@@H]4OC[C@]5(C=CCC(C)(C)[C@@H]45)[C@@H]2CC[C@@H]1[C@H]3OC(=O)/C=C/c1ccc2occc2c1`, the IC50 was found to be 2.4 µM in experiment [1], 2.05 µM in experiment [2], 2.44 µM in experiment [3] and 2.16 µM in experiment [4].

Consider `C=C1C(=O)[C@@]23C(=O)[C@@H](OC(C)=O)[C@@H]4C(C)(C)CC=C[C@@]4(COC(C)=O)[C@@H]2CC[C@@H]1[C@H]3OC(C)=O`, for which the half-inhibitory concentration (IC50) in experiment [1] was 1.9 µM; in experiment [2], 2.42 µM; in experiment [3], 1.66 µM; in experiment [4] it was 3.71 µM.

Turning to `C=C1C(=O)[C@@]23C(=O)[C@@H]4OC[C@]5(C=CCC(C)(C)[C@@H]45)[C@@H]2CC[C@@H]1[C@H]3OC(=O)/C=C(\C)c1ccccc1`, the IC50 in experiment [1] stood at 2.44 µM; in experiment [2], 1.85 µM; in experiment [3] it was 1.99 µM; in experiment [4], 1.48 µM.

Take `C=C1C(=O)[C@@]23C(=O)[C@@H]4OC[C@]5(C=CCC(C)(C)[C@@H]45)[C@@H]2CC[C@@H]1[C@H]3OC(=O)CCc1ccccc1`: the 50% inhibitory concentration (IC50) stood at 1.74 µM in experiment [1], 1.62 µM in experiment [2], 1.94 µM in experiment [3] and 1.42 µM in experiment [4].

As to `C=C1C(=O)[C@@]23C(=O)[C@@H]4OC[C@]5(C=CCC(C)(C)[C@@H]45)[C@@H]2CC[C@@H]1[C@H]3OC(=O)/C=C/c1ccsc1`, the IC50 in experiment [1] was 2.82 µM; in experiment [2] it was 2.74 µM; in experiment [3], 3.07 µM; in experiment [4] it was 2.18 µM.

Regarding `C=C1C(=O)[C@@]23C(=O)[C@@H]4OC[C@]5(C=CCC(C)(C)[C@@H]45)[C@@H]2CC[C@@H]1[C@H]3OC(=O)c1ccc(F)cc1`, the IC50 in experiment [1] was found to be 2.05 µM; in experiment [2], 1.65 µM; in experiment [3] it was 2.05 µM; in experiment [4], 1.41 µM.

For the molecule `C=C1C(=O)[C@@]23C(=O)[C@@H]4OC[C@]5(C=CCC(C)(C)[C@@H]45)[C@@H]2CC[C@@H]1[C@H]3OC(=O)/C=C/c1ccc(OC)cc1`, the IC50 in experiment [1] was determined as 2.32 µM; in experiment [2], 1.96 µM; in experiment [3], 2.29 µM; in experiment [4] it was 1.31 µM.

Regarding `C=C1C(=O)[C@@]23C(=O)[C@@H]4OC[C@]5(C=CCC(C)(C)[C@@H]45)[C@@H]2CC[C@@H]1[C@H]3OC(=O)/C=C/c1ccnc(F)c1`, the IC50 amounted to 0.94 µM in experiment [1], 1.12 µM in experiment [2], 1.03 µM in experiment [3] and 0.7 µM in experiment [4].

Regarding `C=C1C(=O)[C@@]23C(=O)[C@@H]4OC[C@]5(C=CCC(C)(C)[C@@H]45)[C@@H]2CC[C@@H]1[C@H]3OC(=O)/C=C/c1ccc2c(c1)OCO2`, the IC50 in experiment [1] is 2.48 µM; in experiment [2] it was 3.02 µM; in experiment [3], 2.65 µM; in experiment [4], 2.23 µM.

Take `C=C1C(=O)[C@@]23C(=O)[C@@H]4OC[C@]5(C=CCC(C)(C)[C@@H]45)[C@@H]2CC[C@@H]1[C@H]3OC(=O)c1cccnc1`: the IC50 in experiment [1] was 2.62 µM; in experiment [2] it was 2.73 µM; in experiment [3], 1.37 µM; in experiment [4], 1.07 µM.

For the molecule `C=C1C(=O)[C@@]23C(=O)[C@@H]4OC[C@]5(C=CCC(C)(C)[C@@H]45)[C@@H]2CC[C@@H]1[C@H]3OC(=O)c1ccncc1`, the IC50 is 1.42 µM in experiment [1], 1.39 µM in experiment [2], 1.32 µM in experiment [3] and 1.08 µM in experiment [4].

Consider `C=C1C(=O)[C@@]23C(=O)[C@@H]4OC[C@]5(C=CCC(C)(C)[C@@H]45)[C@@H]2CC[C@@H]1[C@H]3OC(=O)/C=C/c1ccc(Cl)cc1`, for which the IC50 stood at 2.15 µM in experiment [1], 1.97 µM in experiment [2], 2.34 µM in experiment [3] and 1.62 µM in experiment [4].

Take `C=C1C(=O)[C@@]23C(=O)[C@@H]4OC[C@]5(CCCC(C)(C)[C@@H]45)[C@@H]2CC[C@@H]1[C@H]3O`: the IC50 in experiment [1] worked out at 1.56 µM; in experiment [2] it was 2.05 µM; in experiment [3], 2.29 µM; in experiment [4] it was 1.74 µM.

In the case of `C=C1C(=O)[C@@]23C(=O)[C@@H]4OC[C@]5(C=CCC(C)(C)[C@@H]45)[C@@H]2CC[C@@H]1[C@H]3OC(=O)c1ccccn1`, the half-maximal inhibitory concentration (IC50) in experiment [1] is 0.78 µM; in experiment [2] it was 0.71 µM; in experiment [3], 1.47 µM; in experiment [4] it was 1.12 µM.

Consider `C=C1C(=O)[C@@]23C(=O)[C@@H]4OC[C@]5(C=CCC(C)(C)[C@@H]45)[C@@H]2CC[C@@H]1[C@H]3OC(=O)/C=C/c1ccoc1`, for which the IC50 is 1.38 µM in experiment [1], 1.22 µM in experiment [2], 1.34 µM in experiment [3] and 1.28 µM in experiment [4].

For `C=C1C(=O)[C@@]23C(=O)[C@@H]4OC[C@]5(C=CCC(C)(C)[C@@H]45)[C@@H]2CC[C@@H]1[C@H]3OC(=O)/C=C/c1ccnc(OC)c1`, the IC50 in experiment [1] stood at 1.63 µM; in experiment [2], 1.93 µM; in experiment [3], 1.75 µM; in experiment [4], 1.42 µM.

In the case of `C=C1C(=O)[C@@]23C(=O)[C@@H]4OC[C@]5(C=CCC(C)(C)[C@@H]45)[C@@H]2CC[C@@H]1[C@H]3OC(=O)/C=C/c1cncnc1`, the IC50 in experiment [1] was determined as 0.62 µM; in experiment [2], 0.77 µM; in experiment [3], 0.84 µM; in experiment [4] it was 1.08 µM.

For the molecule `C=C1C(=O)[C@@]23C(=O)[C@@H]4OC[C@]5(C=CCC(C)(C)[C@@H]45)[C@@H]2CC[C@@H]1[C@H]3OC(=O)c1ccc(OC)cc1`, the IC50 in experiment [1] worked out at 1.89 µM; in experiment [2], 1.71 µM; in experiment [3], 2.02 µM; in experiment [4], 1.3 µM.

With `C=C1C(=O)[C@@]23C(=O)C[C@@H]4C(C)(C)CCC[C@@]4(COC(C)=O)[C@@H]2CC[C@@H]1[C@H]3OC(C)=O`, the IC50 stood at 1.81 µM in experiment [1], 2.87 µM in experiment [2], 2.49 µM in experiment [3] and 3.66 µM in experiment [4].

On to `C=C1C(=O)[C@@]23C(=O)[C@@H]4OC[C@]5(C=CCC(C)(C)[C@@H]45)[C@@H]2CC[C@@H]1[C@H]3OC(=O)/C=C/c1ccncc1Cl`, for which the IC50 in experiment [1] stood at 0.86 µM; in experiment [2] it was 0.82 µM; in experiment [3], 0.85 µM; in experiment [4] it was 0.64 µM.

On to `C=C1C(=O)[C@@]23C(=O)[C@@H]4OC[C@]5(C=CCC(C)(C)[C@@H]45)[C@@H]2CC[C@@H]1[C@H]3OC(=O)c1ccccc1`, for which the IC50 amounted to 8.5 µM in experiment [1], 7.12 µM in experiment [2], 8.96 µM in experiment [3] and 7.45 µM in experiment [4].

For the molecule `C=C1C(=O)[C@@]23C(=O)[C@@H]4OC[C@]5(C=CCC(C)(C)[C@@H]45)[C@@H]2CC[C@@H]1[C@H]3OC(=O)c1ccc(S(C)(=O)=O)cc1`, the IC50 in experiment [1] amounted to 1.28 µM; in experiment [2] it was 1.17 µM; in experiment [3], 1.38 µM; in experiment [4], 1.13 µM.

With `C=C1C(=O)[C@@]23C(=O)[C@@H]4OC[C@]5(C=CCC(C)(C)[C@@H]45)[C@@H]2CC[C@@H]1[C@H]3OC(=O)/C=C/c1ccc(F)cc1`, the IC50 in experiment [1] came to 1.75 µM; in experiment [2], 1.63 µM; in experiment [3], 1.6 µM; in experiment [4], 1.18 µM.

With `C=C1C(=O)[C@@]23C(=O)[C@@H]4OC[C@]5(C=CCC(C)(C)[C@@H]45)[C@@H]2CC[C@@H]1[C@H]3OC(=O)c1cnccn1`, the IC50 amounted to 0.71 µM in experiment [1], 0.73 µM in experiment [2], 0.76 µM in experiment [3] and 0.53 µM in experiment [4].

Consider `C=C1C(=O)[C@]23[C@H](O)[C@H]1CC[C@H]2[C@]12CCCC(C)(C)[C@H]1C[C@@]3(O)OC2`, for which the IC50 is 1.88 µM in experiment [1], 2.92 µM in experiment [2], 2.45 µM in experiment [3] and 3.44 µM in experiment [4].

Take `C=C1C(=O)[C@@]23C(=O)[C@@H]4OC[C@@]5([C@H]4C(C)(C)CC[C@@H]5O)[C@@H]2CC[C@@H]1[C@H]3O`: the IC50 in experiment [1] is 1.37 µM; in experiment [2], 2.42 µM; in experiment [3], 2.4 µM; in experiment [4] it was 1.68 µM.

Regarding `C=C1C(=O)[C@@]23C(=O)[C@@H]4OC[C@]5(C=CCC(C)(C)[C@@H]45)[C@@H]2CC[C@@H]1[C@H]3OC(=O)/C=C/c1cccnc1`, the IC50 in experiment [1] worked out at 0.34 µM; in experiment [2], 0.31 µM; in experiment [3], 0.53 µM; in experiment [4] it was 0.68 µM.

For `C=C1C(=O)[C@@]23C(=O)[C@@H]4OC[C@]5(C=CCC(C)(C)[C@@H]45)[C@@H]2CC[C@@H]1[C@H]3OC(=O)/C=C/c1ccnc(Cl)c1`, the IC50 in experiment [1] was determined as 1.71 µM; in experiment [2], 2.09 µM; in experiment [3], 1.6 µM; in experiment [4], 1.35 µM.

In the case of `C=C1C(=O)[C@@]23C(=O)[C@@H]4OC[C@]5(C=CCC(C)(C)[C@@H]45)[C@@H]2CC[C@@H]1[C@H]3OC(=O)c1ccc2ncccc2c1`, the IC50 in experiment [1] turned out to be 2.59 µM; in experiment [2] it was 2.67 µM; in experiment [3], 2.56 µM; in experiment [4] it was 2.11 µM.

In the case of `C=C1C(=O)[C@@]23C(=O)[C@@H]4OC[C@]5(C=CCC(C)(C)[C@@H]45)[C@@H]2CC[C@@H]1[C@H]3OC(=O)c1ccncn1`, the IC50 in experiment [1] amounted to 0.85 µM; in experiment [2], 0.74 µM; in experiment [3], 0.85 µM; in experiment [4] it was 0.64 µM.
